# Laboratory results as given in patent US20260159525A1, “TRICYCLIC HETEROCYCLES” (Merck Patent GmbH, priority 2021, published 2026).
# Test system: YAP-TEAD interaction
# Test: SK-HEP-1 reporter assay (8x TEAD responsive elements driving NanoLuc luciferase)
# Assay type: cell-based
# Settings: Homo sapiens, SK-HEP1, SK-HEP-1 cells, 24 hour incubation, group symbols
# Method: To identify inhibitors of YAP-TEAD interaction, 8× TEAD responsive elements driving the NanoLuc® luciferase gene were stably integrated into SK-HEP-1 cells (ECACC #: 91091816).
# For the assay, cells were treated in duplicates with the test compounds in a 10-point dose, with the top concentration starting at 30 μM (final concentration in assay). After a 24 hour incubation at 37° C., 95% rH, and 5% CO2, a luciferase substrate/lysis reagent mix (NanoGlo™, Promega) was added to the cells, allowing the quantification of cellular luciferase activity.
# Cell Media: The cells were cultured in the following media: MEM, +10% FBS, +1× GlutaMAX, +1 mM Sodium-Pyruvate, +100 μM Non-essential amino acids, +0.1 mg/ml Hygromycin. The media used for the assay was: MEM (w/o Phenol Red), +10% FBS, +1× GlutaMAX, +1 mM Sodium-Pyruvate, +100 μM Non-essential amino acids, +0.5% Pen/Strep
# Reagents: The reagents used are listed below:
# Cell culture: The cells were examined using an inverted microscope to check for health and cell density. To dissociate adherent cells, the monolayer of cells was washed once with pre-warmed PBS. After removing the PBS, 3 ml pre-warmed Accutase® was added to a F75 flask, dispersed evenly and the flask was allowed to sit in incubator for ˜4-5 minutes.
# When a single cell suspension was obtained, 7 ml of prewarmed growth media was added and resuspended with the cells. The cell suspension was transferred to a sterile 15 ml conical centrifuge tube, and spun for 5 min at 300×g, RT. The supernatant was discarded and the pellet was resuspended in 10 ml of pre-warmed growth media.
# The total cell count was determined, and 20 μl of the desired cell number was added to each well of a 384 well plate using a Multidrop Combi. The plates were then incubated for 24 hours at 37° C., 95% rH, and 5% CO2.
# Compound treatment: 24 hours after seeding, the cells were treated with compounds.
# A 1:333 dilution of compounds, diluted in DMSO, was made to get a final concentration of 0.3% DMSO per well. To transfer the compounds to the assay plate, 120 nl was shot from Labcyte low dead volume plates to the cell plates containing 20 μl media/well with the ECHO 555 liquid handling system. After treatment, the cells were fed with 20 μl fresh pre-warmed assay media using a Multidrop combi.
# The assay plates were then incubated for another 24 h at 37° C., 95% rH, and 5% CO2.
# Luciferase readout: 24 h after treatment, the plates were taken out of the incubator and were allowed to equilibrate to RT. 30 μl of NanoGlo® reagent was added to the plates in the dark. Plates were shaken for 20 min on a Teleshake (˜1500 rpm) in the dark. The luminescence was then measured using an EnVision microplate reader. The IC50 values were generated using Genedata Screener®.
row,Structure (SMILES),IC50
1,"Cn1cc2c3cc(C(=O)O)sc3n(-c3ccc(S(F)(F)(F)(F)F)cc3)c2n1 [Compound 98, 4-methyl-7-[4-(pentafluoro-lambda6-sulfanyl)phenyl]-9-thia-4,5,7-triazatricyclo[6.3.0.0^2,6]undeca-1(8),2,5,10-tetraene-10-carboxylic acid]",0.1 to 10 µM
2,"CC[C@@H](O)CNC(=O)c1cc2c3cn(C)nc3n(-c3ccc(C(F)(F)F)cc3)c2s1 [Compound 82, N-[(2R)-2-hydroxybutyl]-4-methyl-7-[4-(trifluoromethyl)phenyl]-9-thia-4,5,7-triazatricyclo[6.3.0.0^2,6]undeca-1(8),2,5,10-tetraene-10-carboxamide]",0.1 to 10 µM
3,"CNC(=O)c1cc2c(s1)c1nc(C)sc1n2-c1ccc(C(F)(F)F)cc1 [Compound 23, N,4-dimethyl-7-[4-(trifluoromethyl)phenyl]-5,11-dithia-3,7-diazatricyclo[6.3.0.0^2,6]undeca-1(8),2(6),3,9-tetraene-10-carboxamide]",> 10 µM
4,"Cn1nc2c3cc(C(=O)N[C@@H](CO)c4ccccn4)sc3n(-c3ccc(C(F)(F)F)cc3)c2n1 [Compound 104, N-[(1R)-2-hydroxy-1-(pyridin-2-yl)ethyl]-4-methyl-7-[4-(trifluoromethyl)phenyl]-9-thia-3,4,5,7-tetraazatricyclo[6.3.0.0^2,6]undeca-1(8),2,5,10-tetraene-10-carboxamide]",0.1 to 10 µM
5,"Cn1nc2c3cc(C(=O)N4CC[C@H](O)C4)sc3n(-c3ccc(C(F)(F)F)cc3)c2n1 [Compound 103, (3S)-1-{4-methyl-7-[4-(trifluoromethyl)phenyl]-9-thia-3,4,5,7-tetraazatricyclo[6.3.0.0^2,6]undeca-1(8),2,5,10-tetraene-10-carbonyl}pyrrolidin-3-ol]",0.1 to 10 µM
6,"Cn1cc2c3cc(C(=O)N[C@@H](CO)c4ccccn4)sc3n(-c3ccc(C(F)F)cc3)c2n1 [Compound 101, 7-[4-(difluoromethyl)phenyl]-N-[(1R)-2-hydroxy-1-(pyridin-2-yl)ethyl]-4-methyl-9-thia-4,5,7-triazatricyclo[6.3.0.0^2,6]undeca-1(8),2,5,10-tetraene-10-carboxamide]",0.1 to 10 µM
7,"Cn1cc2c3sc(C(=O)N[C@@H](CO)c4ccccn4)cc3n(-c3ccc(C(F)(F)F)cc3)c2n1 [Compound 14, N-[(1R)-2-hydroxy-1-(pyridin-2-yl)ethyl]-10-methyl-7-[4-(trifluoromethyl)phenyl]-3-thia-7,9,10-triazatricyclo[6.3.0.0^2,6]undeca-1(11),2(6),4,8-tetraene-4-carboxamide]",> 10 µM
8,"Cn1nc2c3sc(C(=O)NCCO)cc3n(-c3ccc(C(F)(F)F)cc3)c2n1 [Compound 7, N-(2-hydroxyethyl)-4-methyl-7-[4-(trifluoromethyl)phenyl]-11-thia-3,4,5,7-tetraazatricyclo[6.3.0.0^2,6]undeca-1(8),2,5,9-tetraene-10-carboxamide]",> 10 µM
9,"C[C@H](CO)NC(=O)c1cc2c3cn(C)nc3n(-c3ccc(SC(F)(F)F)cc3)c2s1 [Compound 84, N-[(2R)-1-hydroxypropan-2-yl]-4-methyl-7-{4-[(trifluoromethyl)sulfanyl]phenyl}-9-thia-4,5,7-triazatricyclo[6.3.0.0^2,6]undeca-1(8),2,5,10-tetraene-10-carboxamide]",0.01 to 0.1 µM
10,"C[C@H](CO)NC(=O)c1cc2c3nn(C)nc3n(-c3ccc(C(F)(F)F)cc3)c2s1 [Compound 106, N-[(2R)-1-hydroxypropan-2-yl]-4-methyl-7-[4-(trifluoromethyl)phenyl]-9-thia-3,4,5,7-tetraazatricyclo[6.3.0.0^2,6]undeca-1(8),2,5,10-tetraene-10-carboxamide]",0.1 to 10 µM
11,"C[C@H](CO)NC(=O)c1cc2c(s1)c1cn(C)nc1n2-c1ccc(C(F)(F)F)cc1 [Compound 16, N-[(2R)-1-hydroxypropan-2-yl]-10-methyl-7-[4-(trifluoromethyl)phenyl]-3-thia-7,9,10-triazatricyclo[6.3.0.0^2,6]undeca-1(11),2(6),4,8-tetraene-4-carboxamide]",> 10 µM
12,"Cn1nc2c3sc(C(N)=O)cc3n(-c3ccc(C(F)(F)F)cc3)c2n1 [Compound 28, 4-methyl-7-[4-(trifluoromethyl)phenyl]-11-thia-3,4,5,7-tetraazatricyclo[6.3.0.0^2,6]undeca-1(8),2,5,9-tetraene-10-carboxamide]",> 10 µM

# The next lines start with the values.
row,IC50,Structure (SMILES)
1,0.1 to 10 µM,"C[C@H](CO)NC(=O)c1cc2c3cn(C)nc3n(-c3ccc(C(F)F)cc3)c2s1 [Compound 107, 7-[4-(difluoromethyl)phenyl]-N-[(2R)-1-hydroxypropan-2-yl]-4-methyl-9-thia-4,5,7-triazatricyclo[6.3.0.0^2,6]undeca-1(8),2,5,10-tetraene-10-carboxamide]"
2,> 10 µM,"Cn1nc2c3cc(C(=O)N4CC[C@@H](O)C4)sc3n(-c3ccc(C(F)(F)F)cc3)c2n1 [Compound 108, (3R)-1-{4-methyl-7-[4-(trifluoromethyl)phenyl]-9-thia-3,4,5,7-tetraazatricyclo[6.3.0.0^2,6]undeca-1(8),2,5,10-tetraene-10-carbonyl}pyrrolidin-3-ol]"
3,0.1 to 10 µM,"COCC(CO)NC(=O)c1cc2c3cn(C)nc3n(-c3ccc(C(F)(F)F)cc3)c2s1 (stereo not drawn) [Compound 111, N-(1-hydroxy-3-methoxypropan-2-yl)-4-methyl-7-[4-(trifluoromethyl)phenyl]-9-thia-4,5,7-triazatricyclo[6.3.0.0^2,6]undeca-1(8),2,5,10-tetraene-10-carboxamide]"
4,0.01 to 0.1 µM,"Cn1cc2c3cc(C(=O)O)sc3n(-c3ccc(OC(F)F)cn3)c2n1 [Compound 127, 7-[5-(difluoromethoxy)pyridin-2-yl]-4-methyl-9-thia-4,5,7-triazatricyclo[6.3.0.0^2,6]undeca-1(8),2,5,10-tetraene-10-carboxylic acid]"

# Same assay, conditions: Homo sapiens, SK-HEP1, SK-HEP-1 cells, 24 hour incubation, number, or n.d. (x) = not detectable below threshold x
row,Structure (SMILES),IC50
1,"Cn1cc2c3cc(C(=O)N[C@H](CO)C4CCC4)sc3n(-c3ccc(C(F)(F)F)cc3)c2n1 (single isomer, unassigned) [Compound 56]",> 9.5 µM
2,"C[C@H](CO)NC(=O)c1cc2c3cn(C)nc3n(-c3ccc(C(F)(F)F)nc3)c2s1 [Compound 86, N-[(2R)-1-hydroxypropan-2-yl]-4-methyl-7-[6-(trifluoromethyl)pyridin-3-yl]-9-thia-4,5,7-triazatricyclo[6.3.0.0^2,6]undeca-1(8),2,5,10-tetraene-10-carboxamide]",> 30 µM
3,"CC(=O)NCCOCCOCCNC(=O)c1cc2c3cn(C)nc3n(-c3ccc(C(F)(F)F)cc3)c2s1 [Compound 73, N-(2-{2-[2-({4-methyl-7-[4-(trifluoromethyl)phenyl]-9-thia-4,5,7-triazatricyclo[6.3.0.0^2,6]undeca-1(8),2,5,10-tetraen-10-yl}formamido)ethoxy]ethoxy}ethyl)acetamide]",> 3 µM
4,"CNC(=O)c1cc2c3cn(C)nc3n(-c3ccc(C(F)(F)F)nc3)c2s1 [Compound 87, N,4-dimethyl-7-[6-(trifluoromethyl)pyridin-3-yl]-9-thia-4,5,7-triazatricyclo[6.3.0.0^2,6]undeca-1(8),2,5,10-tetraene-10-carboxamide]",> 30 µM

# Continued, values first:
row,IC50,Structure (SMILES)
1,> 0.3 µM,"Cn1cc2c3cc(C(=O)NCC(O)CO)sc3n(-c3ccc(C(F)(F)F)cn3)c2n1 (stereo not drawn) [Compound 115, N-(2,3-dihydroxypropyl)-4-methyl-7-[5-(trifluoromethyl)pyridin-2-yl]-9-thia-4,5,7-triazatricyclo[6.3.0.0^2,6]undeca-1(8),2,5,10-tetraene-10-carboxamide]"
2,> 3 µM,"CC[C@H](CO)NC(=O)c1cc2c3cn(C)nc3n(-c3ccc(C(F)(F)F)cn3)c2s1 [Compound 114, N-[(2R)-1-hydroxybutan-2-yl]-4-methyl-7-[5-(trifluoromethyl)pyridin-2-yl]-9-thia-4,5,7-triazatricyclo[6.3.0.0^2,6]undeca-1(8),2,5,10-tetraene-10-carboxamide]"
3,> 0.95 µM,"Cn1cc2c3cc(C(=O)NC[C@H](O)CO)sc3n(-c3ccc(C(F)(F)F)cc3)c2n1 (single isomer, unassigned) [Compound 129]"
4,> 9.5 µM,"Cn1cc2c3cc(C(=O)NC(CO)CO)sc3n(-c3ccc(C(F)(F)F)cc3)c2n1 [Compound 112, N-(1,3-dihydroxypropan-2-yl)-4-methyl-7-[4-(trifluoromethyl)phenyl]-9-thia-4,5,7-triazatricyclo[6.3.0.0^2,6]undeca-1(8),2,5,10-tetraene-10-carboxamide]"
